Values joined by “and” are separate entries in the source; they are usually repeats but may differ in a detail not shown here. Equal entries are not always repeated.
Legend:
SfurOBP11 = SfurOBP11 (Sogatella furcifera, UniProt V5T6E3); test: biochemical; assay type: binding
Summary of the method: (§1)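 Fluorescence competitive binding used 2.0 µM SfurOBP and 2.0 µM 1-NPN reporter in 50 mM Tris-HCl, pH 7.4, with odorants at 2-20 µM. Fluorescence was read 2 min after adding the odorant (excitation 337 nm, emission 390-490 nm), in triplicate. Ki was calculated from IC50 as IC50/(1 + [1-NPN]/K1-NPN).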

SfurOBP1 = SfurOBP1 (Sogatella furcifera, UniProt V5T8N5); test: biochemical; assay type: binding; details: for Fluorescence competitive binding assay, fluorescence intensity: OBP1, three replicate columns
Sequence of SfurOBP1 (V5T8N5 entry or part of it): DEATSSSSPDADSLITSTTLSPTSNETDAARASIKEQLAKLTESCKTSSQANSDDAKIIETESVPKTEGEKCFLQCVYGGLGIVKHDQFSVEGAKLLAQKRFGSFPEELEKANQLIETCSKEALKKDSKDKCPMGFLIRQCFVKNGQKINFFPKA
Summary of the method: as §1

SfurOBP3 = SfurOBP3 (Sogatella furcifera, UniProt V5T818); test: biochemical; assay type: binding; details: for Fluorescence competitive binding assay, fluorescence intensity: OBP3, three replicate columns;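 for Fluorescence competitive binding assay, fluorescence intensity: competitor odorant at 2 to 20 µM with protein and 1-NPN both 2.0 µM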
Sequence of SfurOBP3 (V5T818 entry or part of it): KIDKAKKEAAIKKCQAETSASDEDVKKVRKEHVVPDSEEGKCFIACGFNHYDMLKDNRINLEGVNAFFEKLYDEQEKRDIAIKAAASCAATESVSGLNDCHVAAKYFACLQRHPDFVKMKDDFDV
Summary of the method: as §1

SfurOBP2 = SfurOBP2 (Sogatella furcifera, UniProt V5T759); test: biochemical; assay type: binding
Sequence of SfurOBP2 (V5T759 entry or part of it): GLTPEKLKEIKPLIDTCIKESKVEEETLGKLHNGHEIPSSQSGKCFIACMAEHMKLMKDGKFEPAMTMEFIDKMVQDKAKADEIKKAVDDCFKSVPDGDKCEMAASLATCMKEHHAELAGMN
Summary of the method: as §1

S. furcifera adults = test: Y-tube olfactometer behavioral trials; assay type: in vivo, Sogatella furcifera; details: odorant 50 µL/L vs hexane
Summary of the method: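 Single S. furcifera adults (2 days post-emergence, starved 0.5 h) chose between odorant (100 µL of 50 µL/L on filter paper) and hexane control in a glass Y-tube, charcoal-filtered humidified air 300 mL/min per arm, 25 ± 1 °C, 50% RH. Choice scored if insect passed half an arm and stayed >1 min within 10 min; 45 insects per compound, chi-squared test.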
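Throughout, for Fluorescence competitive binding assay, fluorescence intensity: competitor odorant at 2 to 20 µM with protein and 1-NPN both 2.0 µM.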

Sequence of SfurOBP11 (V5T6E3 entry or part of it): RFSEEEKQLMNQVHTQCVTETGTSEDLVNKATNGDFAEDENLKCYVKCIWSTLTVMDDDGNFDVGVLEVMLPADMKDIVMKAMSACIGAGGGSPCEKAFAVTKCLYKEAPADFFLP

For `CC(=O)/C=C/C1=C(C)CCCC1(C)C` [β-Ionone], the IC50 (SfurOBP11) was 19.9 µM, the “Fluorescence intensity, fluorescence competitive binding assay, OBP11” value (“Fluorescence intensity … OBP11” for short) (SfurOBP11; ligand concentration 2, replicate 1) was 28050 and the “Fluorescence intensity … OBP11” value (SfurOBP11; ligand concentration 2, replicate 2) was 27736. For the same molecule, the “Fluorescence intensity … OBP11” value (SfurOBP11; ligand concentration 2, replicate 3) was 27612, the “Fluorescence intensity … OBP11” value (SfurOBP11; ligand concentration 4, replicate 1) was 28634 and the “Fluorescence intensity … OBP11” value (SfurOBP11; ligand concentration 4, replicate 2) was 28801. The “Fluorescence intensity … OBP11” value (SfurOBP11; ligand concentration 4, replicate 3) was 26168, the “Fluorescence intensity … OBP11” value (SfurOBP11; ligand concentration 6, replicate 1) was 26910 and the “Fluorescence intensity … OBP11” value (SfurOBP11; ligand concentration 6, replicate 2) was 26403. For the same molecule, the “Fluorescence intensity … OBP11” value (SfurOBP11; ligand concentration 6, replicate 3) was 26657, the “Fluorescence intensity … OBP11” value (SfurOBP11; ligand concentration 8, replicate 1) was 23184 and the “Fluorescence intensity … OBP11” value (SfurOBP11; ligand concentration 8, replicate 2) was 24499. The “Fluorescence intensity … OBP11” value (SfurOBP11; ligand concentration 8, replicate 3) was 24103, the “Fluorescence intensity … OBP11” value (SfurOBP11; ligand concentration 10, replicate 1) was 21871 and the “Fluorescence intensity … OBP11” value (SfurOBP11; ligand concentration 10, replicate 2) was 21831. For the same molecule, the “Fluorescence intensity … OBP11” value (SfurOBP11; ligand concentration 10, replicate 3) was 22447, the “Fluorescence intensity … OBP11” value (SfurOBP11; ligand concentration 12, replicate 1) was 20048 and the “Fluorescence intensity … OBP11” value (SfurOBP11; ligand concentration 12, replicate 2) was 20727. The “Fluorescence intensity … OBP11” value (SfurOBP11; ligand concentration 12, replicate 3) was 21593, the “Fluorescence intensity … OBP11” value (SfurOBP11; ligand concentration 14, replicate 1) was 17047 and the “Fluorescence intensity … OBP11” value (SfurOBP11; ligand concentration 14, replicate 2) was 18839. For the same molecule, the “Fluorescence intensity … OBP11” value (SfurOBP11; ligand concentration 14, replicate 3) was 19615, the “Fluorescence intensity … OBP11” value (SfurOBP11; ligand concentration 16, replicate 1) was 15254 and the “Fluorescence intensity … OBP11” value (SfurOBP11; ligand concentration 16, replicate 2) was 16765. For the same molecule, the “Fluorescence intensity … OBP11” value (SfurOBP11; ligand concentration 16, replicate 3) was 16613, the “Fluorescence intensity … OBP11” value (SfurOBP11; ligand concentration 18, replicate 1) was 17103 and the “Fluorescence intensity … OBP11” value (SfurOBP11; ligand concentration 18, replicate 2) was 17364. For the same molecule, the “Fluorescence intensity … OBP11” value (SfurOBP11; ligand concentration 18, replicate 3) was 18167, the “Fluorescence intensity … OBP11” value (SfurOBP11; ligand concentration 20, replicate 1) was 16580 and the “Fluorescence intensity … OBP11” value (SfurOBP11; ligand concentration 20, replicate 2) was 17841. For the same molecule, the “Fluorescence intensity … OBP11” value (SfurOBP11; ligand concentration 20, replicate 3) was 17555, the IC50 (SfurOBP1) was over 20 µM and the “Fluorescence competitive binding assay, fluorescence intensity” value (SfurOBP1; ligand concentration 2 (μM)) was 7051 and 7963 and 8084. For the same molecule, the “Fluorescence competitive binding assay, fluorescence intensity” value (SfurOBP1; ligand concentration 4 (μM)) was 8179 and 8456 and 7621, the “Fluorescence competitive binding assay, fluorescence intensity” value (SfurOBP1; ligand concentration 6 (μM)) was 7891 and 8214 and 10941 and the “Fluorescence competitive binding assay, fluorescence intensity” value (SfurOBP1; ligand concentration 8 (μM)) was 7486 and 8333 and 7729. The “Fluorescence competitive binding assay, fluorescence intensity” value (SfurOBP1; ligand concentration 10 (μM)) was 7166 and 7631 and 8078, the “Fluorescence competitive binding assay, fluorescence intensity” value (SfurOBP1; ligand concentration 12 (μM)) was 13786 and 8045 and 7592 and the “Fluorescence competitive binding assay, fluorescence intensity” value (SfurOBP1; ligand concentration 14 (μM)) was 7676 and 7139 and 7314. For the same molecule, the “Fluorescence competitive binding assay, fluorescence intensity” value (SfurOBP1; ligand concentration 16 (μM)) was 6374 and 6355 and 6393, the “Fluorescence competitive binding assay, fluorescence intensity” value (SfurOBP1; ligand concentration 18 (μM)) was 6677 and 6433 and 6722 and the “Fluorescence competitive binding assay, fluorescence intensity” value (SfurOBP1; ligand concentration 20 (μM)) was 6744 and 6442 and 6578. The IC50 (SfurOBP3) was 12 µM, the “Fluorescence competitive binding assay, fluorescence intensity” value (SfurOBP3; ligand concentration 2) was 49137 and 48472 and 49801 and the “Fluorescence competitive binding assay, fluorescence intensity” value (SfurOBP3; ligand concentration 4) was 47017 and 46358 and 43965. For the same molecule, the “Fluorescence competitive binding assay, fluorescence intensity” value (SfurOBP3; ligand concentration 6) was 39740 and 42626 and 39389, the “Fluorescence competitive binding assay, fluorescence intensity” value (SfurOBP3; ligand concentration 8) was 37430 and 36910 and 36009 and the “Fluorescence competitive binding assay, fluorescence intensity” value (SfurOBP3; ligand concentration 10) was 35904 and 33157 and 32677. For the same molecule, the “Fluorescence competitive binding assay, fluorescence intensity” value (SfurOBP3; ligand concentration 12) was 30694 and 33051 and 28374, the “Fluorescence competitive binding assay, fluorescence intensity” value (SfurOBP3; ligand concentration 14) was 26192 and 26407 and 26489 and the “Fluorescence competitive binding assay, fluorescence intensity” value (SfurOBP3; ligand concentration 16) was 23097 and 23904 and 24653. The “Fluorescence competitive binding assay, fluorescence intensity” value (SfurOBP3; ligand concentration 18) was 23846 and 23655 and 23476, the “Fluorescence competitive binding assay, fluorescence intensity” value (SfurOBP3; ligand concentration 20) was 21994 and 24647 and 23321 and the “binding affinity to SfurOBP3 (in words)” value (SfurOBP3; SfurOBP3) was “high binding affinities”. The IC50 (SfurOBP2) was 20 µM, the “Fluorescence competitive binding assay, OBP2 (raw fluorescence reading)” value (SfurOBP2; ligand concentration 2 (unit not given), replicate column 1 of 3) was 20663 and the “Fluorescence competitive binding assay, OBP2 (raw fluorescence reading)” value (SfurOBP2; ligand concentration 2 (unit not given), replicate column 2 of 3) was 19168. The “Fluorescence competitive binding assay, OBP2 (raw fluorescence reading)” value (SfurOBP2; ligand concentration 2 (unit not given), replicate column 3 of 3) was 19828, the “Fluorescence competitive binding assay, OBP2 (raw fluorescence reading)” value (SfurOBP2; ligand concentration 4 (unit not given), replicate column 1 of 3) was 20326 and the “Fluorescence competitive binding assay, OBP2 (raw fluorescence reading)” value (SfurOBP2; ligand concentration 4 (unit not given), replicate column 2 of 3) was 19347. For the same molecule, the “Fluorescence competitive binding assay, OBP2 (raw fluorescence reading)” value (SfurOBP2; ligand concentration 4 (unit not given), replicate column 3 of 3) was 18863, the “Fluorescence competitive binding assay, OBP2 (raw fluorescence reading)” value (SfurOBP2; ligand concentration 6 (unit not given), replicate column 1 of 3) was 19895 and the “Fluorescence competitive binding assay, OBP2 (raw fluorescence reading)” value (SfurOBP2; ligand concentration 6 (unit not given), replicate column 2 of 3) was 18583. The “Fluorescence competitive binding assay, OBP2 (raw fluorescence reading)” value (SfurOBP2; ligand concentration 6 (unit not given), replicate column 3 of 3) was 19617, the “Fluorescence competitive binding assay, OBP2 (raw fluorescence reading)” value (SfurOBP2; ligand concentration 8 (unit not given), replicate column 1 of 3) was 17627 and the “Fluorescence competitive binding assay, OBP2 (raw fluorescence reading)” value (SfurOBP2; ligand concentration 8 (unit not given), replicate column 2 of 3) was 19078. For the same molecule, the “Fluorescence competitive binding assay, OBP2 (raw fluorescence reading)” value (SfurOBP2; ligand concentration 8 (unit not given), replicate column 3 of 3) was 16731, the “Fluorescence competitive binding assay, OBP2 (raw fluorescence reading)” value (SfurOBP2; ligand concentration 10 (unit not given), replicate column 1 of 3) was 16901 and the “Fluorescence competitive binding assay, OBP2 (raw fluorescence reading)” value (SfurOBP2; ligand concentration 10 (unit not given), replicate column 2 of 3) was 16412. The “Fluorescence competitive binding assay, OBP2 (raw fluorescence reading)” value (SfurOBP2; ligand concentration 10 (unit not given), replicate column 3 of 3) was 15901, the “Fluorescence competitive binding assay, OBP2 (raw fluorescence reading)” value (SfurOBP2; ligand concentration 12 (unit not given), replicate column 1 of 3) was 15640 and the “Fluorescence competitive binding assay, OBP2 (raw fluorescence reading)” value (SfurOBP2; ligand concentration 12 (unit not given), replicate column 2 of 3) was 15758. For the same molecule, the “Fluorescence competitive binding assay, OBP2 (raw fluorescence reading)” value (SfurOBP2; ligand concentration 12 (unit not given), replicate column 3 of 3) was 15363, the “Fluorescence competitive binding assay, OBP2 (raw fluorescence reading)” value (SfurOBP2; ligand concentration 14 (unit not given), replicate column 1 of 3) was 13711 and the “Fluorescence competitive binding assay, OBP2 (raw fluorescence reading)” value (SfurOBP2; ligand concentration 14 (unit not given), replicate column 2 of 3) was 13915. The “Fluorescence competitive binding assay, OBP2 (raw fluorescence reading)” value (SfurOBP2; ligand concentration 14 (unit not given), replicate column 3 of 3) was 13962, the “Fluorescence competitive binding assay, OBP2 (raw fluorescence reading)” value (SfurOBP2; ligand concentration 16 (unit not given), replicate column 1 of 3) was 12366 and the “Fluorescence competitive binding assay, OBP2 (raw fluorescence reading)” value (SfurOBP2; ligand concentration 16 (unit not given), replicate column 2 of 3) was 12873. The “Fluorescence competitive binding assay, OBP2 (raw fluorescence reading)” value (SfurOBP2; ligand concentration 16 (unit not given), replicate column 3 of 3) was 12910, the “Fluorescence competitive binding assay, OBP2 (raw fluorescence reading)” value (SfurOBP2; ligand concentration 18 (unit not given), replicate column 1 of 3) was 12338 and the “Fluorescence competitive binding assay, OBP2 (raw fluorescence reading)” value (SfurOBP2; ligand concentration 18 (unit not given), replicate column 2 of 3) was 12028. The “Fluorescence competitive binding assay, OBP2 (raw fluorescence reading)” value (SfurOBP2; ligand concentration 18 (unit not given), replicate column 3 of 3) was 11737, the “Fluorescence competitive binding assay, OBP2 (raw fluorescence reading)” value (SfurOBP2; ligand concentration 20 (unit not given), replicate column 1 of 3) was 11557 and the “Fluorescence competitive binding assay, OBP2 (raw fluorescence reading)” value (SfurOBP2; ligand concentration 20 (unit not given), replicate column 2 of 3) was 10983. The “Fluorescence competitive binding assay, OBP2 (raw fluorescence reading)” value (SfurOBP2; ligand concentration 20 (unit not given), replicate column 3 of 3) was 11423, the “behavioral response of S. furcifera (in words)” value (S. furcifera adults) was “strongly attracted” and the “number of insects choosing hexane arm” value (S. furcifera adults; adults) was 18. The “number of insects choosing volatilies arm” value (S. furcifera adults; adults) was 10 and the “number of insects failed (no choice)” value (S. furcifera adults; adults) was 12.

Source: article PMC6409085, “Three odorant-binding proteins are involved in the behavioral response of Sogatella furcifera to rice plant volatiles” (PeerJ, 2019)
